From PubChem BioAssay AID1963984 (Molecular Pharmacology Branch, DTP, NCI, 2024)

System: 233499-124-R-J3-PDC spheroids with HUVEC/MSC, viability
Assay: Anticancer human tumor 233499-124-R-J3-PDC patient-derived colon adenocarcinoma cell line growth inhibition [PI3K]
Settings: for IC50: curve of first compound; for viability, T/C: stronger effect = lower value
Description: Combinatorial screen of targeted agents with the PI3K inhibitors inavolisib, alpelisib, duvelisib, and copanlisib in multi-cell type tumor spheroids
A high-throughput screen of multi-cell type tumor spheroids was designed to identify active combinations of targeted small molecules and PI3K pathway inhibitors. Complex spheroids include a stromal component modeled by human endothelial cells (HUVEC) and fibroblasts modeled by human mesenchymal stem cells (MSCs). The concentration ranges selected for each drug and investigational agent were based upon clinically achievable concentrations if the clinical Cmax of the agent was known.
Compounds. The drugs and investigational agents: inavolisib (NSC800729), alpelisib (NSC765974), duvelisib (NSC772469), copanlisib (NSC816437), ipatasertib (NSC767898), afuresertib (NSC778305), talazoparib (NSC767125), sapanisertib (NSC764658), selumetinib (NSC741078), tovorafenib (DAY101, NSC766906), vemurafenib (NSC761431), ravoxertinib (NSC781343), sotorasib (NSC818433), MRTX1133 (NSC 836407), abemaciclib (NSC 768073), palbociclib (NSC758247), venetoclax (NSC 766270), SY5609 (NSC837396), enzalutamide (NSC755605), and darolutamide (NSC825331), were obtained from the National Cancer Institute (NCI) Developmental Therapeutics Program Chemical Repository. The FDA-approved anticancer drug set is available from the NCI Developmental Therapeutics Program. […] The stock solutions were prepared in dimethyl sulfoxide (DMSO, Sigma-Aldrich, St. Louis, MO, cat. D2650) at 800-fold the tested concentration and stored at -70 degrees C prior to their use. All drugs and investigational agents were tested over a range starting from a high concentration at or near the clinical Cmax and decreasing in half-log increments. If the clinical Cmax for an agent had not been determined, the highest concentration tested was 10 microM.
Cell Culture. All cells were maintained in an incubator at 37 degrees C and 5% CO2 with 95% humidity. The PDC lines were cultured according to standard operating procedures established by the NCI PDMR (https://pdmr.cancer.gov/sops/default.htm). All PDCs were thawed and cultured in Matrigel-coated flasks prepared with a working solution of 1X Ham's F-12 nutrient mix, without supplementation (Invitrogen, Waltham, MA, cat. 11765054), 100 U/mL penicillin-streptomycin (Invitrogen, cat. 15140122), and 2.5% Matrigel (Corning Inc., Corning, NY, cat. 354248) for the first three passages. The 354836-022-R-J1-PDC, 475296-252-R-J1-PDC, and 997726-040-R-J2-PDC lines were cultured in 6A media, which includes advanced DMEM/F-12 (Thermo Fisher Scientific, cat. 12634028), 10 mM HEPES (Thermo Fisher Scientific, cat. 15630080), 1X GlutaMAX supplement (Thermo Fisher Scientific, cat. 35050061), 0.1 mg/mL primocin (InvivoGen, San Diego, CA, cat. ant-pm-2), 10% defined fetal bovine serum, heat inactivated (HyClone Laboratories Inc., Logan, UT, cat. SH30070.03HI), 50% L-WRN conditioned media (ATCC, cat. CRL-3276), 1.25 mM N-Acetyl-L-cysteine (Sigma-Aldrich, cat. A9165), 10 mM nicotinamide (Sigma-Aldrich, cat. N0636), 1X B-27 supplement (Thermo Fisher Scientific, cat. 17504044), 1X N-2 supplement (Thermo Fisher Scientific, cat. 17502048), and 10 microM Y-27632 dihydrochloride (Tocris Bioscience, Bristol, United Kingdom, cat. 1254). The 624824-186-R-J2-PDC line was cultured in 6C/Colon 1B media, which includes all 6A media components plus 50 ng/mL human EGF recombinant protein (Thermo Fisher Scientific, cat. PHG0311). […]

[1] = second compound 0.0316 µM, first compound 0.0316 µM
[2] = second compound 0.0316 µM, first compound 0.1 µM
[3] = second compound 0.0316 µM, first compound 0.316 µM
[4] = second compound 0.0316 µM, first compound 1 µM
[5] = second compound 0.0316 µM, first compound 3.16 µM
[6] = second compound 0.0316 µM, first compound 10 µM
[7] = second compound 0.1 µM, first compound 0.0316 µM
[8] = second compound 0.1 µM, first compound 0.1 µM
[9] = second compound 0.1 µM, first compound 0.316 µM
[10] = second compound 0.1 µM, first compound 1 µM
[11] = second compound 0.1 µM, first compound 3.16 µM
[12] = second compound 0.1 µM, first compound 10 µM
[13] = second compound 0.316 µM, first compound 0.0316 µM
[14] = second compound 0.316 µM, first compound 0.1 µM
[15] = second compound 0.316 µM, first compound 0.316 µM
[16] = second compound 0.316 µM, first compound 1 µM
[17] = second compound 0.316 µM, first compound 3.16 µM
[18] = second compound 0.316 µM, first compound 10 µM
[19] = second compound 1 µM, first compound 0.0316 µM
[20] = second compound 1 µM, first compound 0.1 µM
[21] = second compound 1 µM, first compound 0.316 µM
[22] = second compound 1 µM, first compound 1 µM
[23] = second compound 1 µM, first compound 3.16 µM
[24] = second compound 1 µM, first compound 10 µM
[25] = second compound 3.16 µM, first compound 0.0316 µM
[26] = second compound 3.16 µM, first compound 0.1 µM
[27] = second compound 3.16 µM, first compound 0.316 µM
[28] = second compound 3.16 µM, first compound 1 µM
[29] = second compound 3.16 µM, first compound 3.16 µM
[30] = second compound 3.16 µM, first compound 10 µM
[31] = second compound 10 µM, first compound 0.0316 µM
[32] = second compound 10 µM, first compound 0.1 µM
[33] = second compound 10 µM, first compound 0.316 µM
[34] = second compound 10 µM, first compound 1 µM
[35] = second compound 10 µM, first compound 3.16 µM
[36] = second compound 10 µM, first compound 10 µM
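Note: spheroids exposed to agents for seven days before readout.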
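Throughout, for viability, T/C: percent viability relative to DMSO vehicle control taken as 100%.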

CC(Cn1ccc(-c2ccc(C#N)c(Cl)c2)n1)NC(=O)c1cc(C(C)O)[nH]n1 (stereo unspecified) + Cc1nc(NC(=O)N2CCCC2C(N)=O)sc1-c1ccnc(C(C)(C)C(F)(F)F)c1
IC50 (second compound 0.0316 µM): > 10 µM
IC50 (second compound 0.1 µM): > 10 µM
IC50 (second compound 0.316 µM): > 10 µM
IC50 (second compound 1 µM): > 10 µM
IC50 (second compound 3.16 µM): 5.95 µM
IC50 (second compound 10 µM): < 0.0316 µM
viability, T/C [1]: 88.9%
viability, T/C [2]: 81.6%
viability, T/C [3]: 101%
viability, T/C [4]: 97.3%
viability, T/C [5]: 95.6%
viability, T/C [6]: 85.6%
viability, T/C [7]: 102%
viability, T/C [8]: 106%
viability, T/C [9]: 98.7%
viability, T/C [10]: 108%
viability, T/C [11]: 72.6%
viability, T/C [12]: 92.5%
viability, T/C [13]: 55.1%
viability, T/C [14]: 74.3%
viability, T/C [15]: 105%
viability, T/C [16]: 100%
viability, T/C [17]: 86.7%
viability, T/C [18]: 77.6%
viability, T/C [19]: 77.2%
viability, T/C [20]: 76.5%
viability, T/C [21]: 83.7%
viability, T/C [22]: 50.5%
viability, T/C [23]: 63.6%
viability, T/C [24]: 81.9%
viability, T/C [25]: 61.8%
viability, T/C [26]: 53.8%
viability, T/C [27]: 59.7%
viability, T/C [28]: 64.6%
viability, T/C [29]: 39.6%
viability, T/C [30]: 52.5%
viability, T/C [31]: 30.7%
viability, T/C [32]: 33.9%
viability, T/C [33]: 35%
viability, T/C [34]: 42.2%
viability, T/C [35]: 21.9%
viability, T/C [36]: 38.9%

Cn1ncnc1[C@H]1c2n[nH]c(=O)c3cc(F)cc(c23)N[C@@H]1c1ccc(F)cc1 + CC(Nc1ncnc2nc[nH]c12)c1cc2cccc(Cl)c2c(=O)n1-c1ccccc1
IC50 (second compound 0.0316 µM): > 0.1 µM
IC50 (second compound 0.1 µM): > 0.1 µM
IC50 (second compound 0.316 µM): > 0.1 µM
IC50 (second compound 1 µM): > 0.1 µM
IC50 (second compound 3.16 µM): > 0.1 µM
IC50 (second compound 10 µM): > 0.1 µM
viability, T/C (second compound 0.0316 µM, first compound 0.000316 µM): 90.9%
viability, T/C (second compound 0.0316 µM, first compound 0.001 µM): 82%
viability, T/C (second compound 0.0316 µM, first compound 0.00316 µM): 84.9%
viability, T/C (second compound 0.0316 µM, first compound 0.01 µM): 87.8%
viability, T/C [1]: 75.4%
viability, T/C [2]: 69%
viability, T/C (second compound 0.1 µM, first compound 0.000316 µM): 99.7%
viability, T/C (second compound 0.1 µM, first compound 0.001 µM): 106%
viability, T/C (second compound 0.1 µM, first compound 0.00316 µM): 70.9%
viability, T/C (second compound 0.1 µM, first compound 0.01 µM): 73.4%
viability, T/C [7]: 74.1%
viability, T/C [8]: 72.2%
viability, T/C (second compound 0.316 µM, first compound 0.000316 µM): 90%
viability, T/C (second compound 0.316 µM, first compound 0.001 µM): 94.7%
viability, T/C (second compound 0.316 µM, first compound 0.00316 µM): 70.3%
viability, T/C (second compound 0.316 µM, first compound 0.01 µM): 76.7%
viability, T/C [13]: 64.9%
viability, T/C [14]: 70%
viability, T/C (second compound 1 µM, first compound 0.000316 µM): 85.7%
viability, T/C (second compound 1 µM, first compound 0.001 µM): 77.8%
viability, T/C (second compound 1 µM, first compound 0.00316 µM): 89%
viability, T/C (second compound 1 µM, first compound 0.01 µM): 84.2%
viability, T/C [19]: 77.7%
viability, T/C [20]: 54.1%
viability, T/C (second compound 3.16 µM, first compound 0.000316 µM): 79.9%
viability, T/C (second compound 3.16 µM, first compound 0.001 µM): 85.9%
viability, T/C (second compound 3.16 µM, first compound 0.00316 µM): 90.3%
viability, T/C (second compound 3.16 µM, first compound 0.01 µM): 82.4%
viability, T/C [25]: 76.8%
viability, T/C [26]: 76.5%
viability, T/C (second compound 10 µM, first compound 0.000316 µM): 89.7%
viability, T/C (second compound 10 µM, first compound 0.001 µM): 71.3%
viability, T/C (second compound 10 µM, first compound 0.00316 µM): 85.2%
viability, T/C (second compound 10 µM, first compound 0.01 µM): 92.3%
viability, T/C [31]: 66.9%
viability, T/C [32]: 72.2%

C#Cc1c(F)ccc2cc(O)cc(-c3ncc4c(N5CC6CCC(C5)N6)nc(OCC56CCCN5CC(F)C6)nc4c3F)c12 (stereo unspecified) + CC(Nc1ncnc2nc[nH]c12)c1cc2cccc(Cl)c2c(=O)n1-c1ccccc1
IC50 (second compound 0.0316 µM): > 10 µM
IC50 (second compound 0.1 µM): > 10 µM
IC50 (second compound 0.316 µM): > 10 µM
IC50 (second compound 1 µM): > 10 µM
IC50 (second compound 3.16 µM): > 10 µM
IC50 (second compound 10 µM): > 10 µM
viability, T/C [1]: 95%
viability, T/C [2]: 101%
viability, T/C [3]: 82.5%
viability, T/C [4]: 90.7%
viability, T/C [5]: 85.2%
viability, T/C [6]: 75.5%
viability, T/C [7]: 113%
viability, T/C [8]: 114%
viability, T/C [9]: 81.7%
viability, T/C [10]: 94.7%
viability, T/C [11]: 84%
viability, T/C [12]: 73.2%
viability, T/C [13]: 112%
viability, T/C [14]: 92.1%
viability, T/C [15]: 105%
viability, T/C [16]: 90.6%
viability, T/C [17]: 87.9%
viability, T/C [18]: 69.7%
viability, T/C [19]: 102%
viability, T/C [20]: 102%
viability, T/C [21]: 108%
viability, T/C [22]: 95.5%
viability, T/C [23]: 109%
viability, T/C [24]: 90.6%
viability, T/C [25]: 110%
viability, T/C [26]: 94.2%
viability, T/C [27]: 101%
viability, T/C [28]: 77.9%
viability, T/C [29]: 87.5%
viability, T/C [30]: 55.9%
viability, T/C [31]: 92.8%
viability, T/C [32]: 89.4%
viability, T/C [33]: 87.5%
viability, T/C [34]: 84.7%
viability, T/C [35]: 108%
viability, T/C [36]: 84.7%
